Results on four compounds are retold here after article PMC11466185, “Mechanisms and efficacy of small molecule latency-promoting agents to inhibit HIV reactivation ex vivo” (JCI Insight, 2024).

Assay [1] concerns HIV transcripts (PolyA, TatRev). Kind of assay: Dose-response curves of LPAs: polyadenylated and multiply spliced HIV transcripts 24 hours after activation. It counts as cell-based. To be noted: for PolyA (dose-response) / MS Tat-Rev (dose-response): 24 hours, 1 participant per drug; for IC50: Human immunodeficiency virus 1, PBMC, 24 h, PBMCs from 1 participant per drug. Here is the method:
The IC50 was determined based on the reduction in completed (PolyA) as well as multiply spliced (TatRev) HIV transcripts relative to activated DMSO (Table 1).
Figure 2 Dose-response curves of LPAs. Dose-response curves for each drug were generated in PBMCs from 1 ART-suppressed study participant per drug. PBMCs were aliquoted into wells at 6 × 10^6 cells/well, activated, and cultured with antiretrovirals in the presence of DMSO alone (no drug) or varying concentrations of individual drugs in DMSO. After 24 hours, the levels of polyadenylated and multiply spliced HIV transcripts were quantified by RT-ddPCR, normalized to 1 μg of total cellular RNA, and expressed as a percentage of the activated DMSO control (% of activated DMSO).

In assay [2] the test system is HIV transcripts (TAR, LLTR, Pol, PolyA, TatRev). Kind of assay: Cell-associated HIV transcripts (RT-ddPCR) 6 days after anti-CD3/CD28 activation of PBMCs from ART-suppressed PWH. The conditions noted are these: DMSO+CD3/28 = 1, Fig 4B, C and D. The format is cell-based. Here is the method: Next, we evaluated the ability of the candidate LPAs to sustain the inhibitory effects during a prolonged ex vivo culture. To this end, PBMCs were cultured in the presence of individual drugs in DMSO or in DMSO alone as control, activated (anti-CD3/CD28), and harvested after 6 days. […] However, we decided to test the drug on day 6 because extra cells were available from some study participants.
Each drug was tested in PBMCs from at least 6 ART-suppressed study participants (except for KRIBB11, n = 5). PBMCs were aliquoted into wells at 6 × 10^6 cells/well. After activation, the cells were cultured with antiretrovirals in the presence of individual drugs in DMSO or DMSO alone as control. All conditions were tested in the presence of CD3/28 T cell–activating beads, except for the unactivated DMSO condition. After 6 days, total cellular RNA was extracted, and the progression through different stages of HIV transcription was quantified by measuring the levels of initiated (TAR), 5′ elongated (LLTR), midtranscribed/unspliced (Pol), completed (PolyA), and multiply spliced (TatRev) HIV transcripts. (A) The levels of all HIV transcripts were normalized to 1 μg of total cellular RNA and expressed as a percentage of the activated DMSO control (% of activated DMSO). Medians are shown as well as the individual values per study participant in different colors. (B–D) The effect of each drug on HIV transcriptional progression after activation was analyzed by the ratio of one HIV transcript to another. Ratios are independent of HIV infection frequency or normalization to cell numbers. Shown are the proportion of (B) all HIV transcripts that are elongated (LLTR/TAR), (C) elongated HIV transcripts that are completed (PolyA/LLTR), and (D) completed transcripts that are multiply spliced (TatRev/PolyA). Medians and IQR are presented, along with the individual values per study participant in different colors. P values were calculated using Wilcoxon’s signed-rank test: *P < 0.05.
PBMCs were isolated from fresh venous blood from 16 ART-suppressed HIV-infected study participants using Ficoll density gradient centrifugation. The cells were seeded at 6 × 10^6 cells/well and cultured with antiretrovirals (nevirapine and indinavir) to prevent new infection. On the next day, PBMCs were activated with anti-CD3/CD28–coated beads (Invitrogen) in the presence of 20 U/mL IL-2 and individual drugs in DMSO or DMSO alone as a control. Since we were limited in the PBMC yield per study participant, different study participants were used for different experiments (such as the initial screen, dose response, different time points, and studies in activated vs. unstimulated cells). In addition, the yields of PBMCs were sometimes insufficient to test all drugs for a given question or experiment.
For quantification of cell-associated HIV transcripts, PBMCs were harvested either after 24 hours or after 6 days. The cell viabilities were measured by trypan blue staining; then the cells were pelleted by centrifuging at 300g for 6 minutes and stored at –80°C. For quantification of virion-associated HIV RNA, cell culture supernatant was collected from 6 × 10^6 PBMCs that were treated and activated for 6 days as described above. Residual cells and cellular debris were subsequently removed from the supernatant by differential centrifugation (300g for 6 minutes, then 20,000g for 10 minutes), and the supernatant was stored at –80°C.
Total cellular DNA and RNA were extracted in parallel using Trireagent (Molecular Research Center) according to the manufacturer’s instructions, except for study participants 2147 and 2461 (Figure 4), for whom DNA and RNA were extracted using the QIAGEN AllPrep DNA/RNA/miRNA Universal Kit with on-column DNase I treatment of the RNA and the manufacturer’s modification to enhance recovery of short transcripts.

[3] abbreviates: reduction in PolyA HIV transcripts relative to activated DMSO, read-out: Completed (PolyA) IC50.
[4] abbreviates: reduction in TatRev HIV transcripts relative to activated DMSO, read-out: Multiply spliced (TatRev) IC50.

Molecules are shown by their SMILES. Where two headings read alike, the source gives them in different places.

Turning to `CCc1cnn2c(NCc3ccc[n+]([O-])c3)cc(N3CCCC[C@H]3CCO)nc12` [dinaciclib], the “PolyA (dose-response)” value in assay [1] (dose 1 nM) is 39.51 % of activated DMSO; in assay [1] (dose 4 nM) it was 6.37 % of activated DMSO; in assay [1] (dose 8 nM), 1.62 % of activated DMSO. Moreover, the LLTR/TAR in assay [2] (participant 150b) is 0.1874; in assay [2] (participant 2027) it was 0.2578; in assay [2] (participant 2147a), 2.005; in assay [2] (participant 2161), 1.155; in assay [2] (participant 2461), 2.038; in assay [2] (participant 2750), 1.778. The PolyA/LLTR in assay [2] (participant 150b) is 1.735; in assay [2] (participant 2027), 0.8564; in assay [2] (participant 2147a), 0.4014; in assay [2] (participant 2161), 1.48; in assay [2] (participant 2461), 3.944; in assay [2] (participant 2750), 2.886. Further, the TatRev/PolyA in assay [2] (participant 150b) stood at 1.49; in assay [2] (participant 2027), 0.1946; in assay [2] (participant 2147a) it was 0.7191; in assay [2] (participant 2161), 1.061; in assay [2] (participant 2750), 0.2646.
In the case of `CC(=O)N[C@@H]1CCC[C@H](C(=O)Nc2cc(-c3cnn4c3CC(C)(C)C4)c(Cl)cn2)C1` [AZD4573], the concentration for half-maximal inhibition (IC50) in assay [1] (setting [3]) came to 0.28 nM; in assay [1] (setting [4]), 0.23 nM. Besides, the entries for the “MS Tat-Rev (dose-response)” value in assay [1] (dose 1 nM), in assay [1] (dose 8 nM) and in assay [1] (dose 20 nM) were 18.92 % of activated DMSO, 1.11 % of activated DMSO and 0.18 % of activated DMSO, respectively. Moreover, the results for the “PolyA (dose-response)” value in assay [1] (dose 1 nM), in assay [1] (dose 8 nM) and in assay [1] (dose 20 nM) were 20.96 % of activated DMSO, 5.23 % of activated DMSO and 4.94 % of activated DMSO, respectively. The LLTR/TAR amounted to 0.3501 in assay [2] (participant 2027); 0.6972 in assay [2] (participant 2147a); 0.7137 in assay [2] (participant 2161); 1.973 in assay [2] (participant 2461); 0.6631 in assay [2] (participant 2750). For the same compound, the PolyA/LLTR in assay [2] (participant 2027) is recorded as 0.2124; in assay [2] (participant 2147a) it was 0.4073; in assay [2] (participant 2161) it was 1.39; in assay [2] (participant 2461) it was 0.4151; in assay [2] (participant 2747) it was 0.4425; in assay [2] (participant 2750), 1.188. Besides, the TatRev/PolyA in assay [2] (participant 2027) is 0; in assay [2] (participant 2147a) it was 0.2876; in assay [2] (participant 2161), 0; in assay [2] (participant 2750), 0.2617.
For the compound `CN1CC[C@H](c2c(O)cc(O)c3c(=O)cc(-c4ccccc4Cl)oc23)[C@H](O)C1` [alvocidib], the 50% inhibitory concentration (IC50) stood at 3.41 nM in assay [1] (setting [3]) and 4.23 nM in assay [1] (setting [4]). The “MS Tat-Rev (dose-response)” value in assay [1] (dose 4 nM) is 60.15 % of activated DMSO; in assay [1] (dose 10 nM), 21.37 % of activated DMSO; in assay [1] (dose 40 nM), 5.52 % of activated DMSO; in assay [1] (dose 100 nM) it was 1.88 % of activated DMSO. In addition, the “PolyA (dose-response)” value is listed as 52.96 % of activated DMSO in assay [1] (dose 4 nM), 17.13 % of activated DMSO in assay [1] (dose 10 nM), 5.99 % of activated DMSO in assay [1] (dose 40 nM) and 3.2 % of activated DMSO in assay [1] (dose 100 nM). Also, the LLTR/TAR in assay [2] (participant 150b) worked out at 0.5959; in assay [2] (participant 1379) it was 0.8323; in assay [2] (participant 2027), 0.4309; in assay [2] (participant 2147a) it was 0.3521; in assay [2] (participant 2161), 1.064; in assay [2] (participant 2256), 0.6179. For the same compound, the LLTR/TAR in assay [2] (participant 2461) came out at 1.513; in assay [2] (participant 2747) it was 0; in assay [2] (participant 5557), 0.4901. Further, the PolyA/LLTR in assay [2] (participant 150b) turned out to be 1.023; in assay [2] (participant 1379), 0.9327; in assay [2] (participant 2027) it was 0.9713; in assay [2] (participant 2147a), 0.4486; in assay [2] (participant 2161), 0.55; in assay [2] (participant 2256), 0.6868. Besides, the PolyA/LLTR in assay [2] (participant 2461) was 1.443; in assay [2] (participant 5557) it was 0.9442. The TatRev/PolyA in assay [2] (participant 150b) is on record as 0.12; in assay [2] (participant 2027) it was 0.1413; in assay [2] (participant 2147a) it was 0.2041; in assay [2] (participant 2256), 0.617.
Consider `COc1ccc(-c2cc(=O)c3c(O)cc(O)c(-c4cc(-c5cc(=O)c6c(O)cc(O)cc6o5)ccc4OC)c3o2)cc1` [isoginkgetin], for which the LLTR/TAR is 0.8798 in assay [2] (participant 150b); 1.373 in assay [2] (participant 1379); 0.7253 in assay [2] (participant 2027); 0.06726 in assay [2] (participant 2147a); 0.6564 in assay [2] (participant 2161); 1.751 in assay [2] (participant 2256). Also, the LLTR/TAR was 1.166 in assay [2] (participant 2461), 0 in assay [2] (participant 2747) and 0.8133 in assay [2] (participant 5557). Further, the PolyA/LLTR in assay [2] (participant 150b) came out at 1.092; in assay [2] (participant 1379) it was 0.4663; in assay [2] (participant 2027), 0.8811; in assay [2] (participant 2147a) it was 1.437; in assay [2] (participant 2161) it was 0.57; in assay [2] (participant 2256) it was 0.07578. For the same compound, the PolyA/LLTR turned out to be 0.2875 in assay [2] (participant 2461) and 0.9591 in assay [2] (participant 5557). The TatRev/PolyA in assay [2] (participant 150b) turned out to be 1.01; in assay [2] (participant 2147a), 0.8892; in assay [2] (participant 5557), 0.5795.
